PubChem BioAssay (NCI)
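A five-concentration, 48-hour dose response in 96-well plates underlies each endpoint, interpolated linearly between surrounding concentrations. GI50 is the concentration that inhibits growth by half. TGI: concentration producing complete growth inhibition.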

Key:
Test in all cases: NCI anticancer screen, dose series, 48 h
TK-10 renal = system: TK-10 renal
UACC-62 melanoma = system: UACC-62 melanoma
HS 578T breast = system: HS 578T breast
MALME-3M melanoma = system: MALME-3M melanoma
MOLT-4 leukemia = system: MOLT-4 leukemia
SF-539 CNS = system: SF-539 CNS
HCT-116 colon = system: HCT-116 colon
DU-145 prostate = system: DU-145 prostate
MCF7 breast = system: MCF7 breast
786-0 renal = system: 786-0 renal
NCI-H460 lung = system: NCI-H460 lung
RPMI-8226 leukemia = system: RPMI-8226 leukemia
KM12 colon = system: KM12 colon
CAKI-1 renal = system: CAKI-1 renal
UO-31 renal = system: UO-31 renal
SK-MEL-5 melanoma = system: SK-MEL-5 melanoma
SK-MEL-28 melanoma = system: SK-MEL-28 melanoma
SW-620 colon = system: SW-620 colon
OVCAR-5 ovarian = system: OVCAR-5 ovarian
BT-549 breast = system: BT-549 breast
SF-268 CNS = system: SF-268 CNS
HCT-15 colon = system: HCT-15 colon
NCI-H226 lung = system: NCI-H226 lung
MDA-MB-468 breast = system: MDA-MB-468 breast
A498 renal = system: A498 renal
SNB-19 CNS = system: SNB-19 CNS
HCC-2998 colon = system: HCC-2998 colon
SF-295 CNS = system: SF-295 CNS
ACHN renal = system: ACHN renal
M14 melanoma = system: M14 melanoma
SK-MEL-2 melanoma = system: SK-MEL-2 melanoma
HT29 colon = system: HT29 colon
T-47D breast = system: T-47D breast
OVCAR-4 ovarian = system: OVCAR-4 ovarian
NCI-H23 lung = system: NCI-H23 lung
SNB-75 CNS = system: SNB-75 CNS
MDA-MB-435 = system: MDA-MB-435
SK-OV-3 ovarian = system: SK-OV-3 ovarian
EKVX NSCLC = system: EKVX NSCLC
HOP-62 NSCLC = system: HOP-62 NSCLC
OVCAR-3 ovarian = system: OVCAR-3 ovarian
SR leukemia = system: SR leukemia
MDA-MB-231 breast = system: MDA-MB-231 breast
K-562 leukemia = system: K-562 leukemia
OVCAR-8 ovarian = system: OVCAR-8 ovarian
HOP-92 NSCLC = system: HOP-92 NSCLC
CCRF-CEM leukemia = system: CCRF-CEM leukemia
IGROV1 ovarian = system: IGROV1 ovarian
UACC-257 melanoma = system: UACC-257 melanoma
PC-3 prostate = system: PC-3 prostate
LOX IMVI melanoma = system: LOX IMVI melanoma
SN12C renal = system: SN12C renal
COLO 205 colon = system: COLO 205 colon
HL-60(TB) leukemia = system: HL-60(TB) leukemia
RXF 393 renal = system: RXF 393 renal
NCI-H522 lung = system: NCI-H522 lung
A549 NSCLC = system: A549 NSCLC
U251 CNS = system: U251 CNS

`C=CC[Se]C(=O)c1cncc(C(=O)[Se]CC=C)c1` gave a GI50 (TK-10 renal) of 1.71 µM, a TGI (TK-10 renal) of 3.14 µM and a GI50 (UACC-62 melanoma) of 1.68 µM. The TGI (UACC-62 melanoma) was 3.72 µM, the GI50 (HS 578T breast) was 1.94 µM and the TGI (HS 578T breast) was 6.82 µM. For the same compound, the GI50 (MALME-3M melanoma) was 1.92 µM, the TGI (MALME-3M melanoma) was 4.86 µM and the GI50 (MOLT-4 leukemia) was 2.73 µM. The TGI (MOLT-4 leukemia) was 7.74 µM, the GI50 (SF-539 CNS) was 1.36 µM and the TGI (SF-539 CNS) was 2.65 µM. It also gave a GI50 (HCT-116 colon) of 1.31 µM, a TGI (HCT-116 colon) of 2.82 µM and a GI50 (DU-145 prostate) of 2.22 µM. The TGI (DU-145 prostate) was 4.73 µM, the GI50 (MCF7 breast) was 2.21 µM and the TGI (MCF7 breast) was 5.55 µM. The GI50 (786-0 renal) was 1.85 µM, the TGI (786-0 renal) was 3.27 µM and the GI50 (NCI-H460 lung) was 0.382 µM. The TGI (NCI-H460 lung) was 3.07 µM, the GI50 (RPMI-8226 leukemia) was 2.45 µM and the TGI (RPMI-8226 leukemia) was 6.38 µM. It also gave a GI50 (KM12 colon) of 1.34 µM, a TGI (KM12 colon) of 2.76 µM and a GI50 (CAKI-1 renal) of 1.8 µM. It also gave a TGI (CAKI-1 renal) of 3.46 µM, a GI50 (UO-31 renal) of 1.65 µM and a TGI (UO-31 renal) of 3.03 µM. It also gave a GI50 (SK-MEL-5 melanoma) of 1.71 µM, a TGI (SK-MEL-5 melanoma) of 3.69 µM and a GI50 (SK-MEL-28 melanoma) of 1.71 µM. For the same compound, the TGI (SK-MEL-28 melanoma) was 3.24 µM, the GI50 (SW-620 colon) was 1.94 µM and the TGI (SW-620 colon) was 3.68 µM. It also gave a GI50 (OVCAR-5 ovarian) of 1.55 µM, a TGI (OVCAR-5 ovarian) of 3.16 µM and a GI50 (BT-549 breast) of 1.74 µM. It also gave a TGI (BT-549 breast) of 3.21 µM, a GI50 (SF-268 CNS) of 2.23 µM and a TGI (SF-268 CNS) of 6.82 µM. For the same compound, the GI50 (HCT-15 colon) was 1.95 µM, the TGI (HCT-15 colon) was 3.81 µM and the GI50 (NCI-H226 lung) was 2.88 µM. For the same compound, the TGI (NCI-H226 lung) was 10.5 µM, the GI50 (MDA-MB-468 breast) was 1.8 µM and the TGI (MDA-MB-468 breast) was 3.54 µM. The GI50 (A498 renal) was 3.57 µM, the TGI (A498 renal) was 47.8 µM and the GI50 (SNB-19 CNS) was 0.386 µM. For the same compound, the TGI (SNB-19 CNS) was 1.5 µM, the GI50 (HCC-2998 colon) was 1.06 µM and the TGI (HCC-2998 colon) was 2.26 µM. For the same compound, the GI50 (SF-295 CNS) was 0.261 µM, the TGI (SF-295 CNS) was 0.756 µM and the GI50 (ACHN renal) was 3.28 µM. For the same compound, the TGI (ACHN renal) was 10.3 µM, the GI50 (M14 melanoma) was 1.81 µM and the TGI (M14 melanoma) was 3.31 µM. The GI50 (SK-MEL-2 melanoma) was 1.92 µM, the TGI (SK-MEL-2 melanoma) was 3.79 µM and the GI50 (HT29 colon) was 3.03 µM. For the same compound, the TGI (HT29 colon) was 10.9 µM, the GI50 (T-47D breast) was 2.14 µM and the TGI (T-47D breast) was 5.14 µM. For the same compound, the GI50 (OVCAR-4 ovarian) was 1.99 µM, the TGI (OVCAR-4 ovarian) was 3.85 µM and the GI50 (NCI-H23 lung) was 1.39 µM. The TGI (NCI-H23 lung) was 2.96 µM, the GI50 (SNB-75 CNS) was 1.03 µM and the TGI (SNB-75 CNS) was 2.44 µM. It also gave a GI50 (MDA-MB-435) of 1.88 µM, a TGI (MDA-MB-435) of 3.79 µM and a GI50 (SK-OV-3 ovarian) of 1.43 µM. The TGI (SK-OV-3 ovarian) was 3.03 µM, the GI50 (EKVX NSCLC) was 1.46 µM and the TGI (EKVX NSCLC) was 3.08 µM. The GI50 (HOP-62 NSCLC) was 0.525 µM, the TGI (HOP-62 NSCLC) was 2.23 µM and the GI50 (OVCAR-3 ovarian) was 1.89 µM. For the same compound, the TGI (OVCAR-3 ovarian) was 3.4 µM, the GI50 (SR leukemia) was 3.02 µM and the TGI (SR leukemia) was 27.1 µM. It also gave a GI50 (MDA-MB-231 breast) of 1.8 µM, a TGI (MDA-MB-231 breast) of 4 µM and a GI50 (K-562 leukemia) of 3.15 µM. The TGI (K-562 leukemia) was 10.7 µM, the GI50 (OVCAR-8 ovarian) was 1.51 µM and the TGI (OVCAR-8 ovarian) was 2.94 µM. It also gave a GI50 (HOP-92 NSCLC) of 3.3 µM, a TGI (HOP-92 NSCLC) of 8.93 µM and a GI50 (CCRF-CEM leukemia) of 2.42 µM. It also gave a TGI (CCRF-CEM leukemia) of 7.28 µM, a GI50 (IGROV1 ovarian) of 0.544 µM and a TGI (IGROV1 ovarian) of 1.8 µM. It also gave a GI50 (UACC-257 melanoma) of 1.79 µM, a TGI (UACC-257 melanoma) of 3.35 µM and a GI50 (PC-3 prostate) of 0.431 µM. For the same compound, the TGI (PC-3 prostate) was 1.53 µM, the GI50 (LOX IMVI melanoma) was 1.74 µM and the TGI (LOX IMVI melanoma) was 3.35 µM. For the same compound, the GI50 (SN12C renal) was 0.628 µM, the TGI (SN12C renal) was 1.92 µM and the GI50 (COLO 205 colon) was 3.65 µM. For the same compound, the TGI (COLO 205 colon) was 10.6 µM, the GI50 (HL-60(TB) leukemia) was 2.64 µM and the TGI (HL-60(TB) leukemia) was 7.67 µM. For the same compound, the GI50 (RXF 393 renal) was 2.17 µM, the TGI (RXF 393 renal) was 5.18 µM and the GI50 (NCI-H522 lung) was 1.68 µM. The TGI (NCI-H522 lung) was 3.1 µM, the GI50 (A549 NSCLC) was 0.434 µM and the TGI (A549 NSCLC) was > 100 µM. For the same compound, the GI50 (U251 CNS) was 0.782 µM and the TGI (U251 CNS) was 2.22 µM.
